Experiments:
Test in all cases: Herbicidal activity, pot culture method (primary and secondary screening test)
Assay type in all cases: in vivo
Conditions in all cases: primary screening, pot culture, 150 g/ha, sprayed at 3-leaf stage, result 15 days later
abutilon theophrasti = tested on: abutilon theophrasti
Text: (§1) This test example is for describing the herbicidal activity inhibition ratio (%) (the dose is 150 g/ha) of the compound with a structure shown in Formula (I). Primary screening test (pot culture method): The test targets are abutilon theophrasti, digitaria sanguinalis, amaranthus retroflexus, echinochloa crusgalli, eclipta prostrata and setaria viridis. Take flowerpots with an inner diameter of 6 cm, put composite soil (vegetable garden soil:seedling matrix=1:2, v/v) into them till 3⁄4 of flowerpot height, directly sow the above six weed targets (budding rate>85%), cover them with 0.2 cm thick soil, and keep them for future use when the weeds grow to 3-leaf stage. Each compound is dissolved in N,N-dimethylformamide at a dose of 150 g/ha and diluted with distilled water into a 0.2 g/L solution. The solution is sprayed through an automatic spray tower. After the solution on weed leaves is aired dry, the flowerpots are moved into a greenhouse for cultivation. The result is investigated 15 days later. By the same method adopted in primary screening test, a secondary screening test is done on some typical compounds, such as: 5, 6, 20, 21, 23, 34, 47, 65, 66, 70 and 91 at a reduced dose, and the test result is compared with mesotrione which is commercially available and has a good herbicidal effect. The test method is same as that adopted in primary screening test. Mesotrione is bought from Hubei […] Chemical Co., Ltd.

amaranthus retroflexus = tested on: amaranthus retroflexus
Text: as §1

digitaria sanguinalis = tested on: digitaria sanguinalis
Text: as §1

echinochloa crusgalli = tested on: echinochloa crusgalli
Text: as §1

eclipta prostrata = tested on: eclipta prostrata
Text: as §1

setaria viridis = tested on: setaria viridis
Text: as §1

Row | Compound | herbicidal activity inhibition ratio (%), Abutilon theophrasti (abutilon theophrasti) [%] | herbicidal activity inhibition ratio (%), Amaranthus retroflexus (amaranthus retroflexus) [%] | herbicidal activity inhibition ratio (%), Digitaria sanguinalis (digitaria sanguinalis) [%] | herbicidal activity inhibition ratio (%), Echinochloa crusgalli (echinochloa crusgalli) [%] | herbicidal activity inhibition ratio (%), Eclipta prostrata (eclipta prostrata) [%] | herbicidal activity inhibition ratio (%), Setaria viridis (setaria viridis) [%]
1 | Cn1c(=O)n(-c2cccc(Br)c2)c(=O)c2cc(C(=O)C3=C(O)CC(C)(C)CC3=O)ccc21 [Compound 24] | 93 | 80 | 60 | 30 | 83 | 10
2 | Cn1c(=O)n(-c2ccc(Br)cc2)c(=O)c2cc(C(=O)C3=C(O)CCCC3=O)ccc21 [Compound 25] | 80 | 95 | 80 | 80 | 83 | 35
3 | Cn1c(=O)n(-c2ccc(Br)cc2)c(=O)c2cc(C(=O)C3=C(O)CC(C)(C)CC3=O)ccc21 [Compound 26] | 100 | 100 | 93 | 85 | 88 | 30
4 | Cn1c(=O)n(-c2ccccc2Br)c(=O)c2cc(C(=O)C3=C(O)CCCC3=O)ccc21 [Compound 27] | 83 | 100 | 90 | 90 | 80 | 60
5 | Cn1c(=O)n(-c2ccccc2Br)c(=O)c2cc(C(=O)C3=C(O)CC(C)(C)CC3=O)ccc21 [Compound 28] | 100 | 95 | 95 | 85 | 83 | 35
6 | COc1ccccc1-n1c(=O)c2cc(C(=O)C3=C(O)CCCC3=O)ccc2n(C)c1=O [Compound 29] | 90 | 100 | 88 | 90 | 65 | 60
7 | Cn1c(=O)n(-c2ccc(C(F)(F)F)cc2)c(=O)c2cc(C(=O)C3=C(O)CCCC3=O)ccc21 [Compound 30] | 100 | 100 | 60 | 85 | 60 | 30
8 | Cn1c(=O)n(-c2ccc(C(F)(F)F)cc2)c(=O)c2cc(C(=O)C3=C(O)CC(C)(C)CC3=O)ccc21 [Compound 31] | 60 | 80 | 60 | 40 | 55 | 10
9 | Cn1c(=O)n(-c2c(Cl)cccc2Cl)c(=O)c2cc(C(=O)C3=C(O)CCCC3=O)ccc21 [Compound 32] | 80 | 85 | 80 | 80 | 50 | 40
10 | Cc1ccc(Cl)cc1-n1c(=O)c2cc(C(=O)C3=C(O)CCCC3=O)ccc2n(C)c1=O [Compound 33] | 85 | 90 | 80 | 85 | 83 | 60
11 | Cn1c(=O)n(-c2ccccc2)c(=O)c2cc(C(=O)C3=C(O)CCCC3=O)ccc21 [Compound 35] | 80 | 100 | 65 | 65 | 70 | 50
12 | CC(C)c1ccc(-n2c(=O)c3cc(C(=O)C4=C(O)CCCC4=O)ccc3n(C)c2=O)cc1 [Compound 36] | 50 | 35 | 100 | 25 | 0 | 50
13 | Cc1ccc(Cl)cc1-n1c(=O)c2cc(C(=O)C3=C(O)CC(C)(C)CC3=O)ccc2n(C)c1=O [Compound 37] | 65 | 95 | 83 | 80 | 80 | 40
14 | Cn1c(=O)n(-c2ccccc2C(F)(F)F)c(=O)c2cc(C(=O)C3=C(O)CCCC3=O)ccc21 [Compound 38] | 90 | 100 | 85 | 90 | 75 | 80
15 | Cn1c(=O)n(-c2ccccc2OC(F)(F)F)c(=O)c2cc(C(=O)C3=C(O)CCCC3=O)ccc21 [Compound 39] | 95 | 98 | 85 | 70 | 85 | 80
16 | Cn1c(=O)n(-c2ccccc2)c(=O)c2cc(C(=O)C3=C(O)CC(C)(C)CC3=O)ccc21 [Compound 40] | 100 | 95 | 85 | 78 | 80 | 45
17 | Cn1c(=O)n(-c2ccccc2C(F)(F)F)c(=O)c2cc(C(=O)C3=C(O)CC(C)(C)CC3=O)ccc21 [Compound 41] | 100 | 95 | 85 | 73 | 80 | 25
18 | CC1CC(=O)C(C(=O)c2ccc3c(c2)c(=O)n(-c2ccccc2)c(=O)n3C)=C(O)C1 (stereo not drawn) [Compound 42] | 98 | 100 | 93 | 88 | 83 | 60
